In brackets after ≈: the same amount, converted by molar mass. Like-named read-outs stand apart in the source and are kept apart here.
How the values were obtained:
Ps. aeruginosa A-9843A = assay: MIC, tube dilution, Pseudomonas aeruginosa A9843A; assay type: cell-based; conditions: Pseudomonas aeruginosa, A9843A, read-out: Minimum Inhibitory Concentration (M.I.C.), Pseudomonas aeruginosa A9843A; overnight 37° C.
From the text: (§1) Representative compounds of the present invention were subjected to in vitro antibiotic screening against a variety of microorganisms.

Ent. cloacae A-9659 = assay: MIC, tube dilution, Enterobacter cloacae A9659; assay type: cell-based; conditions: Enterobacter cloacae, A9659, Enterobacter cloacae A9659; overnight 37° C.; read-out: Minimum Inhibitory Concentration (M.I.C.)
From the text: as §1

Ent. cloacae A-9656 = assay: MIC, tube dilution, Enterobacter cloacae A9656; assay type: cell-based; conditions: overnight 37° C., read-out: Minimum Inhibitory Concentration (M.I.C.)
From the text: as §1

Ser. marcescens A-20019 = assay: MIC, tube dilution, Serratia marcescens A20019; assay type: cell-based; conditions: Serratia marcescens, A20019, Serratia marcescens A20019; overnight 37° C.; read-out: Minimum Inhibitory Concentration (M.I.C.)
From the text: as §1

E. coli A-20341-1 = assay: MIC, tube dilution, Escherichia coli A20341-1; assay type: cell-based
From the text: as §1

[1] = test system: Staph. aureus A-9537 and 50% serum; assay: MIC, tube dilution, Staph. aureus A9537 + 50% serum; assay type: cell-based, Staphylococcus aureus; conditions: Staphylococcus aureus, overnight 37° C., read-out: Minimum Inhibitory Concentration (M.I.C.)
From the text: as §1

K. pneumoniae A-15130 = assay: MIC, tube dilution, Klebsiella pneumoniae A15130; assay type: cell-based; conditions: Klebsiella pneumoniae, A15130, K. pneumoniae A15130; overnight 37° C.; read-out: Minimum Inhibitory Concentration (M.I.C.)
From the text: as §1

Proteus rettgeri A21203 = assay: MIC, tube dilution, Proteus rettgeri A21203; assay type: cell-based; conditions: Providencia rettgeri, A21203, Proteus rettgeri A21203; overnight 37° C.; read-out: Minimum Inhibitory Concentration (M.I.C.)
From the text: as §1

Str. pyogenes A-9604 = assay: MIC, tube dilution, Streptococcus pyogenes A9604; assay type: cell-based; conditions: Streptococcus pyogenes, A9604, Str. pyogenes A9604; overnight 37° C., Nutrient Broth; read-out: Minimum Inhibitory Concentration (M.I.C.)
From the text: as §1

E. coli A-15119 = assay: MIC, tube dilution, Escherichia coli A15119; assay type: cell-based; conditions: Escherichia coli, A15119, E. coli A15119; overnight 37° C.; read-out: Minimum Inhibitory Concentration (M.I.C.)
From the text: as §1

Staph. aureus A-9537 = assay: MIC, tube dilution, Staphylococcus aureus A9537; assay type: cell-based; conditions: Staphylococcus aureus, A9537, Staph. aureus A9537; overnight 37° C., Nutrient Broth; read-out: Minimum Inhibitory Concentration (M.I.C.)
From the text: as §1

Proteus vulgaris A9555 = assay: MIC, tube dilution, Proteus vulgaris (mirabilis) A9555; assay type: cell-based; conditions: overnight 37° C., read-out: Minimum Inhibitory Concentration (M.I.C.)
From the text: as §1

[2] = test system: Staph. aureus (Meth-Res) A-15097; assay: MIC, tube dilution, Staphylococcus aureus A15097 (Meth-Res); assay type: cell-based; conditions: Staphylococcus aureus, Staph. aureus A15097 (Meth-Res); overnight 37° C.; read-out: Minimum Inhibitory Concentration (M.I.C.)
From the text: as §1

Pr. morganii A-15153 = assay: MIC, tube dilution, Proteus morganii A15153; assay type: cell-based; conditions: Morganella morganii, A15153, Proteus morganii A15153; overnight 37° C.; read-out: Minimum Inhibitory Concentration (M.I.C.)
From the text: as §1

Str. faecalis A-20688 = assay: MIC, tube dilution, Streptococcus faecalis A20688; assay type: cell-based; conditions: Enterococcus faecalis, A20688, Str. faecalis A20688; overnight 37° C.; read-out: Minimum Inhibitory Concentration (M.I.C.)
From the text: as §1

Ps. aeruginosa A-21213 = assay: MIC, tube dilution, Pseudomonas aeruginosa A21213; assay type: cell-based; conditions: Pseudomonas aeruginosa A21213; overnight 37° C.; read-out: Minimum Inhibitory Concentration (M.I.C.)
From the text: as §1

[3] = test system: Klebsiella species A20468; assay: MIC, tube dilution, Klebsiella species A20468; assay type: cell-based; conditions: Klebsiella species (K. pneumoniae) A20468; overnight 37° C.; read-out: Minimum Inhibitory Concentration (M.I.C.)
From the text: as §1

Str. pneumoniae A-9585 = assay: MIC, tube dilution, Streptococcus pneumoniae A9585; assay type: cell-based; conditions: Streptococcus pneumoniae, A9585, Str. pneumoniae A9585; overnight 37° C., Nutrient Broth; read-out: Minimum Inhibitory Concentration (M.I.C.)
From the text: as §1

[4] = test system: Staph. aureus (Pen-Res) A-9606; assay: MIC, tube dilution, Staphylococcus aureus A9606 (Pen-Res); assay type: cell-based; conditions: Staphylococcus aureus, Staph. aureus A9606 (Pen-Res); overnight 37° C.; read-out: Minimum Inhibitory Concentration (M.I.C.)
From the text: as §1

Pr. mirabilis A-9900 = assay: MIC, tube dilution, Proteus mirabilis A9900; assay type: cell-based; conditions: Proteus mirabilis, A9900, Proteus mirabilis A9900; overnight 37° C.; read-out: Minimum Inhibitory Concentration (M.I.C.)
From the text: as §1

Row | Compound | MIC (Ps. aeruginosa A-9843A) [µg/mL] | MIC (Ent. cloacae A-9659) [µg/mL] | MIC (Ser. marcescens A-20019) [µg/mL] | MIC [1] [µg/mL] | MIC (K. pneumoniae A-15130) [µg/mL] | MIC (Proteus rettgeri A21203) [µg/mL] | MIC (Str. pyogenes A-9604) [µg/mL] | MIC (E. coli A-15119) [µg/mL] | MIC (Staph. aureus A-9537) [µg/mL] | MIC (Proteus vulgaris A9555) [µg/mL] | MIC [2] [µg/mL] | MIC (Pr. morganii A-15153) [µg/mL] | MIC (Str. faecalis A-20688) [µg/mL] | MIC (Ps. aeruginosa A-21213) [µg/mL] | MIC [3] [µg/mL] | MIC (Str. pneumoniae A-9585) [µg/mL] | MIC [4] [µg/mL] | MIC (Pr. mirabilis A-9900) [µg/mL] | also measured
1 | CC1=C(C(=O)O)N2C(=O)[C@H](C(C)(C)O)[C@H]2S1 (relative stereo) [Example 32, trans 6-(2'-Hydroxy-2'-propyl)-2-methylpenem-3-carboxylic Acid] | 125 (≈ 514 µM) | 125 (≈ 514 µM) | 63 (≈ 259 µM) | 32 | 125 (≈ 514 µM) | 63 (≈ 259 µM) | 8 (≈ 32.9 µM) | 63 (≈ 259 µM) | 8 (≈ 32.9 µM) | 125 (≈ 514 µM) | 63 (≈ 259 µM) | 125 (≈ 514 µM) | > 125 | 125 (≈ 514 µM) | > 125 | 0.25 (≈ 1.03 µM) | 16 (≈ 65.8 µM) | 63 (≈ 259 µM) | MIC (Ent. cloacae A-9656; Enterobacter cloacae A9656): 125 µg/mL (≈ 514 µM); MIC (E. coli A-20341-1; Escherichia coli, A203411; E. coli A20341-1; overnight 37° C.; read-out: Minimum Inhibitory Concentration (M.I.C.)): > 125 µg/mL
2 | CC1=C(C(=O)O)N2C(=O)[C@@H](CO)[C@H]2S1 (relative stereo) [Example 68, trans 6-Hydroxymethyl-2-methylpenem-3-carboxylic Acid] | 125 (≈ 581 µM) | 63 (≈ 293 µM) | 63 (≈ 293 µM) | > 63 | 63 (≈ 293 µM) | 63 (≈ 293 µM) | 16 (≈ 74.3 µM) | 63 (≈ 293 µM) | 16 (≈ 74.3 µM) | 63 (≈ 293 µM) | 63 (≈ 293 µM) | 125 (≈ 581 µM) | 125 (≈ 581 µM) | 125 (≈ 581 µM) | 125 (≈ 581 µM) | 4 (≈ 18.6 µM) | 63 (≈ 293 µM) | 63 (≈ 293 µM) | MIC (Ent. cloacae A-9656; Enterobacter cloacae, A9656, Enterobacter cloacae A9656): 63 µg/mL (≈ 293 µM); MIC (E. coli A-20341-1; Escherichia coli, A203411, E. coli A20341-1; overnight 37° C.; read-out: Minimum Inhibitory Concentration (M.I.C.)): 63 µg/mL (≈ 293 µM)

Reference: patent US4272437A, “Antibacterial agents, and 4-thio azetidinone intermediates” (priority 1979, dated 1981)
